Measurements as given in article PMC12116762, “Topobexin targets the Topoisomerase II ATPase domain for beta isoform-selective inhibition and anthracycline cardioprotection” (Nature Communications, 2025).

How the values were obtained:
[1] = tested on: neonatal rat ventricular cardiomyocytes (NVCM); experiment: Inherent toxicity (LDH release) in NVCM; format: cell-based; set-up: key to LDH release (inherent toxicity), mean of independent replicates: % of total LDH activity; conditions: NVCM; for LDH release (inherent toxicity), mean of independent replicates: Suppl.Fig.4; for LTC = lowest toxic concentration: compound alone, n=4
Protocol: (§1) The protective effects of the BNS-22 and newly prepared compounds were evaluated using primary cultures of neonatal rat cardiomyocytes isolated in house as previously described. Hearts isolated from 1- to 3-day-old Wistar rats were minced in buffer (1.2 mM MgSO4 · 7H2O, 116 mM NaCl, 5.3 mM KCl, 1.13 mM NaH2PO4 · H2O, 20 mM 4-(2-hydroxyethyl)-1-piperazine ethanesulfonic acid (HEPES), glucose 1 mg/mL) on ice, then serially digested (20 min, six repetitions) at 37 °C with collagenase type II (60 U/mL, Gibco). After 2 h pre-plating in a 150 mm Petri dish per approximately 20 hearts to minimize non-myocyte contamination, cells were plated in 24-well gelatin-coated plates at a density of 400,000 cells per well. Cells were cultured at 37 °C and 5% CO2 in Dulbecco’s modified Eagle medium (DMEM)/ F12 culture medium supplemented with 10% horse serum, 5% fetal bovine serum (FBS), 20 mM sodium pyruvate, 50 U/mL penicillin, and 50 μg/mL streptomycin. Freshly isolated cells were left for 40 h to attach and form a culture of spontaneously beating cardiomyocytes, then the medium was changed to DMEM/F12 medium supplemented with 5% fetal bovine serum, 20 mM sodium pyruvate, 50 U/mL penicillin, and 50 μg/mL streptomycin. For the experiments, the medium was changed to serum- and pyruvate-free DMEM/F12 with 50 U/mL penicillin and 50 μg/mL streptomycin. Cardiomyocytes were pretreated with BNS-22 or new compounds for 3 h and then coincubated with DAU (1.2 µM) for another 3 h. After the DAU treatment period, the culture medium was exchanged for the drug-free DMEM/F12 with 50 U/mL penicillin and 50 μg/mL streptomycin for the 48 h follow-up. Experiments to determine the inherent toxicity of each compound studied follow the same schedule, only no DAU was added. Subsequently, the culture medium sample was taken from each well for evaluation of lactate dehydrogenase (LDH) activity. The total LDH activity of each sample for normalization was measured after 1 h of incubation at 37 °C in lysis buffer (0.1 M potassium phosphate, 1% Triton X-100, 1 mM dithiothreitol (DTT), 2 mM EDTA, pH 7.8, 15 min in RT). All samples were immediately analyzed in Tris HCl buffer (pH 8.9) containing 35 mM lactic acid and 5 mM NAD^+. The rate of NAD^+ reduction was monitored spectrophotometrically at 340 nm for 2 min. The slope of the linear region was calculated, and the results were expressed as a percentage of the total LDH. Each presented data point was obtained from distinct sample.

[2] = tested on: neonatal rat ventricular cardiomyocytes (NVCM); experiment: Protection against DAU-induced cytotoxicity (LDH release) in NVCM; format: cell-based; set-up: key to Suppl.Fig.3 DAU-induced cytotoxicity (LDH release) in NVCM, mean of independent replicates / LDH release (DAU-induced cytotoxicity), mean of independent replicates: % of total LDH activity; conditions: for minimal effective concentration: Rattus norvegicus, Cardiomyocyte, NVCM, protection against DAU 1.2 µM, n=4, read-out: LEC = lowest effective concentration
Protocol: as §1

Row | SMILES | LDH release (inherent toxicity), mean of independent replicates ([1]; compound alone 1 µM) | LDH release (inherent toxicity), mean of independent replicates ([1]; compound alone 10 µM) | LDH release (inherent toxicity), mean of independent replicates ([1]; compound alone 30 µM) | LDH release (inherent toxicity), mean of independent replicates ([1]; compound alone 100 µM) | minimal effective concentration [2] [µM] | Suppl.Fig.3 DAU-induced cytotoxicity (LDH release) in NVCM, mean of independent replicates ([2]; compound 1 µM + DAU 1.2 µM) | Suppl.Fig.3 DAU-induced cytotoxicity (LDH release) in NVCM, mean of independent replicates ([2]; compound 10 µM + DAU 1.2 µM) | Suppl.Fig.3 DAU-induced cytotoxicity (LDH release) in NVCM, mean of independent replicates ([2]; compound 30 µM + DAU 1.2 µM) | Suppl.Fig.3 DAU-induced cytotoxicity (LDH release) in NVCM, mean of independent replicates ([2]; compound 100 µM + DAU 1.2 µM) | LTC = lowest toxic concentration [1] [µM] | LDH release (inherent toxicity), mean of independent replicates ([1]; compound alone 3 µM) | Suppl.Fig.3 DAU-induced cytotoxicity (LDH release) in NVCM, mean of independent replicates ([2]; compound 3 µM + DAU 1.2 µM) | LDH release (inherent toxicity), mean of independent replicates ([1]; compound alone 0.1 µM) | Suppl.Fig.3 DAU-induced cytotoxicity (LDH release) in NVCM, mean of independent replicates ([2]; compound 0.1 µM + DAU 1.2 µM) | LDH release (inherent toxicity), mean of independent replicates ([1]; compound alone 0.01 µM) | Suppl.Fig.3 DAU-induced cytotoxicity (LDH release) in NVCM, mean of independent replicates ([2]; compound 0.01 µM + DAU 1.2 µM)
1 | Cc1cc(=O)oc2c(C(=O)N3CCCc4ccccc43)c(OCCO)ccc12 [5a] | 12.9508 | 15.8869 | 14.1719 | 15.685 | 30 | 47.2456 | 46.8582 | 41.4003 | 38.7405 | – | – | – | – | – | – | –
2 | CCc1cc(=O)oc2c(C(=O)N3CCCc4ccccc43)c(OC)ccc12 [3b] | 16.0681 | 15.3649 | – | – | – | 33.4469 | 31.9857 | – | – | > 10 | 15.619 | 35.1015 | – | – | – | –
3 | CCCOc1ccc2c(C)cc(=O)oc2c1C(=O)N1CCCc2ccccc21 [4a] | 13.1211 | 16.3565 | 19.993 | – | 10 | 42.086 | 32.6284 | 30.3987 | – | > 30 | – | – | 13.7469 | 45.8753 | – | –
4 | CCc1cc(=O)oc2c(C(=O)N3CCCc4ccccc43)c(O)ccc12 [2b] | – | 17.3516 | 18.0926 | 18.5764 | – | – | 31.7392 | 34.9042 | 31.3386 | – | – | – | – | – | – | –
5 | CCCCc1cc(=O)oc2c(C(=O)N3CCCc4ccccc43)c(OCCC)ccc12 [4d] | 16.9179 | 31.7424 | 60.5761 | 70.9323 | 1 | 25.022 | 40.2951 | 73.3675 | 78.9691 | 10 | – | – | 15.2686 | 31.1377 | 17.8445 | 36.4234
6 | CCCOc1ccc2c(CC)cc(=O)oc2c1C(=O)N1CCCc2ccccc21 [4b] | 13.8348 | 17.7301 | 17.7791 | 17.3487 | 0.1 | 30.3899 | 27.961 | 25.8835 | 28.6308 | – | – | – | 14.2064 | 43.0735 | 14.7625 | 47.614
